Reference: ChEMBL document CHEMBL3286379, “Design and synthesis of pyrimidine molecules endowed with thiazolidin-4-one as new anticancer agents” (Eur J Med Chem, 2014)

What was measured:
NCI-H460 = experiment: Growth inhibition of human NCI-H460 cells after 48 hrs by sulforhodamine B assay; type: functional; conditions: NCI-H460, 48 h
[1] = Growth inhibition of human BT549 cells after 48 hrs by sulforhodamine B assay; type: functional; conditions: BT-549, 48 h
786-0 = experiment: Growth inhibition of human 786-0 cells after 48 hrs by sulforhodamine B assay; type: functional; conditions: 786-0, 48 h
[2] = Growth inhibition of human OVCAR5 cells after 48 hrs by sulforhodamine B assay; type: functional; conditions: OVCAR-5, 48 h
[3] = Growth inhibition of human OVCAR3 cells after 48 hrs by sulforhodamine B assay; type: functional; conditions: OVCAR-3, 48 h
SNB-19 = experiment: Growth inhibition of human SNB19 cells after 48 hrs by sulforhodamine B assay; type: functional; conditions: SNB-19, 48 h
[4] = Growth inhibition of human NCI-ADR-RES cells after 48 hrs by sulforhodamine B assay; type: functional
TK-10 = experiment: Growth inhibition of human TK10 cells after 48 hrs by sulforhodamine B assay; type: functional; conditions: TK-10, 48 h
Rattus norvegicus [5] = experiment: Hepatotoxicity in rat assessed as SGPT level at 0.12 mg/kg, po after 12 days (reference value: 31.17 +/- 0.39 U/mL); type: toxicity, organism-based; set-up: dose 0.12 mg/kg, route oral; conditions: in vivo, 288 h
Rattus norvegicus [6] = experiment: Hepatotoxicity in rat assessed as SGOT level at 0.12 mg/kg, po after 12 days (reference value: 140.23 +/- 1.39 U/mL); type: toxicity, organism-based; set-up: dose 0.12 mg/kg, route oral; conditions: in vivo, 288 h
SR = experiment: Growth inhibition of human SR cells after 48 hrs by sulforhodamine B assay; type: functional
ACHN = experiment: Growth inhibition of human ACHN cells after 48 hrs by sulforhodamine B assay; type: functional
NCI-H23 = experiment: Growth inhibition of human NCI-H23 cells after 48 hrs by sulforhodamine B assay; type: functional; conditions: NCI-H23, 48 h
SF-268 = experiment: Growth inhibition of human SF268 cells after 48 hrs by sulforhodamine B assay; type: functional; conditions: SF-268, 48 h
A498 = experiment: Growth inhibition of human A498 cells after 48 hrs by sulforhodamine B assay; type: functional; conditions: A498, 48 h
MCF7 = experiment: Growth inhibition of human MCF7 cells after 48 hrs by sulforhodamine B assay; type: functional; conditions: MCF7, 48 h
SW-620 = experiment: Growth inhibition of human SW620 cells after 48 hrs by sulforhodamine B assay; type: functional; conditions: SW-620, 48 h
HCT-116 = experiment: Growth inhibition of human HCT116 cells after 48 hrs by sulforhodamine B assay; type: functional; conditions: HCT-116, 48 h
SK-MEL-5 = experiment: Growth inhibition of human SK-MEL-5 cells after 48 hrs by sulforhodamine B assay; type: functional; conditions: SK-MEL-5, 48 h
MDA-MB-468 = experiment: Growth inhibition of human MDA-MB-468 cells after 48 hrs by sulforhodamine B assay; type: functional; conditions: MDA-MB-468, 48 h
NCI-H226 = experiment: Growth inhibition of human NCI-H226 cells after 48 hrs by sulforhodamine B assay; type: functional; conditions: NCI-H226, 48 h
[7] = read-out: LC50 (the source's name)
[8] = read-out: pLC50 (the source's name) (converted)

## Nc1nc(-c2ccccc2Cl)cc(-c2ccc(Cl)cc2Cl)n1
NCI-H460; read-out: GI50
  GI50: 3.31 µM
NCI-H460; [7]
  CC50: > 100 µM
NCI-H460; read-out: TGI
  TGI: 23.1 µM
NCI-H460; read-out: pGI50 (converted)
  GI50: 3.31 µM
NCI-H460; [8]
  CC50: > 100 µM
NCI-H460; read-out: pTGI (converted)
  TGI: 22.9 µM
[1]; read-out: GI50
  GI50: 13.8 µM
[1]; [7]
  CC50: > 100 µM
[1]; read-out: TGI
  TGI: > 100 µM
[1]; read-out: pGI50 (converted)
  GI50: 13.8 µM
[1]; [8]
  CC50: > 100 µM
[1]; read-out: pTGI
  TGI: > 100 µM
786-0; read-out: GI50
  GI50: 20.2 µM
786-0; [7]
  CC50: > 100 µM
786-0; read-out: TGI
  TGI: > 100 µM
786-0; read-out: pGI50 (converted)
  GI50: 20.4 µM
786-0; [8]
  CC50: > 100 µM
786-0; read-out: pTGI
  TGI: > 100 µM
[2]; read-out: GI50
  GI50: 8.09 µM
[2]; [7]
  CC50: > 100 µM
[2]; read-out: TGI
  TGI: > 100 µM
[2]; read-out: pGI50 (converted)
  GI50: 8.13 µM
[2]; [8]
  CC50: > 100 µM
[2]; read-out: pTGI
  TGI: > 100 µM
[3]; read-out: GI50
  GI50: 4.05 µM
[3]; [7]
  CC50: > 100 µM
[3]; read-out: TGI
  TGI: 20.7 µM
[3]; read-out: pGI50 (converted)
  GI50: 4.07 µM
[3]; [8]
  CC50: > 100 µM
[3]; read-out: pTGI (converted)
  TGI: 20.9 µM
SNB-19; read-out: GI50
  GI50: 16.1 µM
SNB-19; [7]
  CC50: > 100 µM
SNB-19; read-out: TGI
  TGI: > 100 µM
SNB-19; read-out: pGI50 (converted)
  GI50: 16.2 µM
SNB-19; [8]
  CC50: > 100 µM
SNB-19; read-out: pTGI
  TGI: > 100 µM
[4]; read-out: GI50
  GI50: 14.8 µM
[4]; [7]
  CC50: > 100 µM
[4]; read-out: TGI
  TGI: > 100 µM
[4]; read-out: pGI50 (converted)
  GI50: 14.8 µM
[4]; [8]
  CC50: > 100 µM
[4]; read-out: pTGI
  TGI: > 100 µM
TK-10; read-out: GI50
  GI50: 9.46 µM
TK-10; [7]
  CC50: > 100 µM
TK-10; read-out: TGI
  TGI: 51 µM
TK-10; read-out: pGI50 (converted)
  GI50: 9.55 µM
TK-10; [8]
  CC50: > 100 µM
TK-10; read-out: pTGI (converted)
  TGI: 51.3 µM
Rattus norvegicus [5]
  Activity: 29.11 U/ml
Rattus norvegicus [6]
  Activity: 133.47 U/ml
SR; read-out: GI50
  GI50: 4.1 µM
SR; [7]
  CC50: > 100 µM
SR; read-out: TGI
  TGI: > 100 µM
SR; read-out: pGI50 (converted)
  GI50: 4.07 µM
SR; [8]
  CC50: > 100 µM
SR; read-out: pTGI
  TGI: > 100 µM
ACHN; read-out: GI50
  GI50: 10.4 µM
ACHN; [7]
  CC50: > 100 µM
ACHN; read-out: TGI
  TGI: > 100 µM
ACHN; read-out: pGI50 (converted)
  GI50: 10.5 µM
ACHN; [8]
  CC50: > 100 µM
ACHN; read-out: pTGI
  TGI: > 100 µM
NCI-H23; read-out: GI50
  GI50: 12.3 µM
NCI-H23; [7]
  CC50: > 100 µM
NCI-H23; read-out: TGI
  TGI: > 100 µM
NCI-H23; read-out: pGI50 (converted)
  GI50: 12.3 µM
NCI-H23; [8]
  CC50: > 100 µM
NCI-H23; read-out: pTGI
  TGI: > 100 µM
SF-268; read-out: GI50
  GI50: 5.01 µM
SF-268; [7]
  CC50: > 100 µM
SF-268; read-out: TGI
  TGI: 81.6 µM
SF-268; read-out: pGI50 (converted)
  GI50: 5.01 µM
SF-268; [8]
  CC50: > 100 µM
SF-268; read-out: pTGI (converted)
  TGI: 81.3 µM
A498; read-out: GI50
  GI50: 3.34 µM
A498; [7]
  CC50: > 100 µM
A498; read-out: TGI
  TGI: 22.8 µM
A498; read-out: pGI50 (converted)
  GI50: 3.31 µM
A498; [8]
  CC50: > 100 µM
A498; read-out: pTGI (converted)
  TGI: 22.9 µM
MCF7; read-out: GI50
  GI50: 3.45 µM
MCF7; [7]
  CC50: > 100 µM
MCF7; read-out: TGI
  TGI: > 100 µM
MCF7; read-out: pGI50 (converted)
  GI50: 3.47 µM
MCF7; [8]
  CC50: > 100 µM
MCF7; read-out: pTGI
  TGI: > 100 µM
SW-620; read-out: GI50
  GI50: 3.41 µM
SW-620; [7]
  CC50: > 100 µM
SW-620; read-out: TGI
  TGI: > 100 µM
SW-620; read-out: pGI50 (converted)
  GI50: 3.39 µM
SW-620; [8]
  CC50: > 100 µM
SW-620; read-out: pTGI
  TGI: > 100 µM
HCT-116; read-out: GI50
  GI50: 4.27 µM
HCT-116; [7]
  CC50: > 100 µM
HCT-116; read-out: TGI
  TGI: > 100 µM
HCT-116; read-out: pGI50 (converted)
  GI50: 4.27 µM
HCT-116; [8]
  CC50: > 100 µM
HCT-116; read-out: pTGI
  TGI: > 100 µM
SK-MEL-5; read-out: GI50
  GI50: 4.78 µM
SK-MEL-5; [7]
  CC50: 71.1 µM
SK-MEL-5; read-out: TGI
  TGI: 20.8 µM
SK-MEL-5; read-out: pGI50 (converted)
  GI50: 4.79 µM
SK-MEL-5; [8]
  CC50: 70.8 µM
SK-MEL-5; read-out: pTGI (converted)
  TGI: 20.9 µM
MDA-MB-468; read-out: GI50
  GI50: 2.18 µM
MDA-MB-468; [7]
  CC50: > 100 µM
MDA-MB-468; read-out: TGI
  TGI: 8.66 µM
MDA-MB-468; read-out: pGI50 (converted)
  GI50: 2.19 µM
MDA-MB-468; [8]
  CC50: > 100 µM
MDA-MB-468; read-out: pTGI (converted)
  TGI: 8.71 µM
NCI-H226; read-out: GI50
  GI50: 81.1 µM
NCI-H226; [7]
  CC50: > 100 µM
NCI-H226; read-out: TGI
  TGI: > 100 µM
NCI-H226; read-out: pGI50 (converted)
  GI50: 18.2 µM
NCI-H226; [8]
  CC50: > 100 µM
NCI-H226; read-out: pTGI
  TGI: > 100 µM
